The target in one test is SLT-1 (VT-1) (Bacteriophage H30, UniProt P69178). The format is binding, E. coli.
Another test addresses SLT-1 (Verotoxin I) (Bacteriophage H30, UniProt P69178). The experiment in a line: biochemical. The format is binding, E. coli. To be noted: for activity relative to the Pk trisaccharide alone: ELISA, VT-I. For orientation: ELISA stands for enzyme-linked immunosorbent assay.
The next test addresses SLT-2 (VT-2) (Escherichia phage 933W, UniProt P09386). The format is binding, E. coli.
The test system of test [1] is Vero cells exposed to SLT. The format is cell-based, African Green Monkey.
A further test addresses SLT-1 (Bacteriophage H30, UniProt P69178). The experiment in a line: biochemical. The format is binding, E. coli.

In general, IC50 refers to the concentration that inhibits the measured activity by half. One may read the Kd as the equilibrium constant for the complex coming apart. A low value points to tighter binding.

Like-named read-outs stand apart in the source and are kept apart here.

Chain of SLT-1 (Verotoxin I) (P69178 whole entry, looked up): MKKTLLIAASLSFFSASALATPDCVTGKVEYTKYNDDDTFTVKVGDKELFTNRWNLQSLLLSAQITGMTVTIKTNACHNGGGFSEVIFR
Chain of SLT-1 (VT-1) (P69178 whole entry, looked up): as above
Chain of SLT-2 (VT-2) (P09386 whole entry, looked up): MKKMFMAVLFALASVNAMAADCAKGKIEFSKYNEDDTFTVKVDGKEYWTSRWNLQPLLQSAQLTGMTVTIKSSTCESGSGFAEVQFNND
Chain of SLT-1 (P69178 21-89 limits assumed): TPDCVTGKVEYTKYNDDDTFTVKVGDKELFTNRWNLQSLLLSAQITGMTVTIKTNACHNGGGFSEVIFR

As to `CO[C@@H]1O[C@H](CO)[C@@H](O[C@@H]2O[C@H](CO)[C@H](O[C@H]3O[C@H](CO)[C@H](O)[C@H](O)[C@H]3O)[C@H](O)[C@H]2OCCOC(=O)NCC(CNC(=O)OCCO[C@H]2[C@H](O[C@H]3[C@H](O)[C@@H](O)[C@H](OC)O[C@@H]3CO)O[C@H](CO)[C@H](O[C@H]3O[C@H](CO)[C@H](O)[C@H](O)[C@H]3O)[C@@H]2O)OC(=O)NCCCCCCCCNc2c(NCCNC(=O)CSCCCOC[C@H]3O[C@@H](OCCCSCC(=O)NCCNc4c(NCCCCCCCCNC(=O)OC(CNC(=O)OCCO[C@H]5[C@H](O[C@H]6[C@H](O)[C@@H](O)[C@H](OC)O[C@@H]6CO)O[C@H](CO)[C@H](O[C@H]6O[C@H](CO)[C@H](O)[C@H](O)[C@H]6O)[C@@H]5O)CNC(=O)OCCO[C@H]5[C@H](O[C@H]6[C@H](O)[C@@H](O)[C@H](OC)O[C@@H]6CO)O[C@H](CO)[C@H](O[C@H]6O[C@H](CO)[C@H](O)[C@H](O)[C@H]6O)[C@@H]5O)c(=O)c4=O)[C@H](OCCCSCC(=O)NCCNc4c(NCCCCCCCCNC(=O)OC(CNC(=O)OCCO[C@H]5[C@H](O[C@H]6[C@H](O)[C@@H](O)[C@H](OC)O[C@@H]6CO)O[C@H](CO)[C@H](O[C@H]6O[C@H](CO)[C@H](O)[C@H](O)[C@H]6O)[C@@H]5O)CNC(=O)OCCO[C@H]5[C@H](O[C@H]6[C@H](O)[C@@H](O)[C@H](OC)O[C@@H]6CO)O[C@H](CO)[C@H](O[C@H]6O[C@H](CO)[C@H](O)[C@H](O)[C@H]6O)[C@@H]5O)c(=O)c4=O)[C@@H](OCCCSCC(=O)NCCNc4c(NCCCCCCCCNC(=O)OC(CNC(=O)OCCO[C@H]5[C@H](O[C@H]6[C@H](O)[C@@H](O)[C@H](OC)O[C@@H]6CO)O[C@H](CO)[C@H](O[C@H]6O[C@H](CO)[C@H](O)[C@H](O)[C@H]6O)[C@@H]5O)CNC(=O)OCCO[C@H]5[C@H](O[C@H]6[C@H](O)[C@@H](O)[C@H](OC)O[C@@H]6CO)O[C@H](CO)[C@H](O[C@H]6O[C@H](CO)[C@H](O)[C@H](O)[C@H]6O)[C@@H]5O)c(=O)c4=O)[C@@H]3OCCCSCC(=O)NCCNc3c(NCCCCCCCCNC(=O)OC(CNC(=O)OCCO[C@H]4[C@H](O[C@H]5[C@H](O)[C@@H](O)[C@H](OC)O[C@@H]5CO)O[C@H](CO)[C@H](O[C@H]5O[C@H](CO)[C@H](O)[C@H](O)[C@H]5O)[C@@H]4O)CNC(=O)OCCO[C@H]4[C@H](O[C@H]5[C@H](O)[C@@H](O)[C@H](OC)O[C@@H]5CO)O[C@H](CO)[C@H](O[C@H]5O[C@H](CO)[C@H](O)[C@H](O)[C@H]5O)[C@@H]4O)c(=O)c3=O)c(=O)c2=O)[C@H](O)[C@H]1O` [Compound 22], the figures for the 50% inhibitory concentration (IC50) against SLT-1 (VT-1), at SLT-1 (Verotoxin I) (read-out: IC50) and against SLT-2 (VT-2) were 0.0004 µM, 0.00023 µM and 0.006 µM, respectively. Also, at SLT-1 (Verotoxin I), the “activity relative to the Pk trisaccharide alone” value is listed as “about a million times more active than the trisaccharide alone”. The “activity relative to the bridged trisaccharide dimer” value at SLT-1 (Verotoxin I) (similar ELISA, FIG. 5) is given as “about 10,000 times”. For the same compound, the “relative inhibition of SLT-1 binding to P^k ligand (in words)” value at SLT-1 (Verotoxin I) (solid phase assays, protocol A or B) is reported as “by far the most active inhibitor of SLT-1 binding to P^k ligand”.
Regarding `CO[C@@H]1O[C@H](CO)[C@@H](O[C@@H]2O[C@H](CO)[C@H](O[C@H]3O[C@H](CO)[C@H](O)[C@H](O)[C@H]3O)[C@H](O)[C@H]2OCCOC(=O)NCC(O)CNC(=O)OCCO[C@H]2[C@H](O[C@H]3[C@H](O)[C@@H](O)[C@H](OC)O[C@@H]3CO)O[C@H](CO)[C@H](O[C@H]3O[C@H](CO)[C@H](O)[C@H](O)[C@H]3O)[C@@H]2O)[C@H](O)[C@H]1O` [Bridged P^k -trisaccharide methyl glycoside dimer], at SLT-1 (Verotoxin I), the IC50 was determined as 55 µM and the “activity relative to the Pk trisaccharide alone” value stood at 38 times. Besides, the “inhibition of cell lysis caused by the SLT” value in test [1] is “more effective than a Pk-BSA conjugate at inhibiting cell lysis”.
`CO[C@@H]1O[C@H](CO)[C@@H](O[C@@H]2O[C@H](CO)[C@H](O[C@H]3O[C@H](CO)[C@H](O)[C@H](O)[C@H]3O)[C@H](O)[C@H]2O)[C@H](O)[C@H]1O` [P^k -trisaccharide methyl glycoside, reference compound] gave an equilibrium dissociation constant (Kd) at SLT-1 of around 1000 µM. The 50% inhibitory concentration (IC50) on SLT-1 (Verotoxin I) (IC50) was found to be 2100 µM; at SLT-1 (Verotoxin I) (read-out: IC50), 2000 µM.
In the case of `CO[C@@H]1O[C@H](CO)[C@@H](O[C@@H]2O[C@H](CO)[C@H](O[C@H]3O[C@H](CO)[C@H](O)[C@H](O)[C@H]3O)[C@H](O)[C@H]2OCCOC(=O)NCC(CNC(=O)OCCO[C@H]2[C@H](O[C@H]3[C@H](O)[C@@H](O)[C@H](OC)O[C@@H]3CO)O[C@H](CO)[C@H](O[C@H]3O[C@H](CO)[C@H](O)[C@H](O)[C@H]3O)[C@@H]2O)OC(=O)NCCCCCCCCNc2c(NCCNC(=O)CSCCCOC[C@H]3O[C@@H](OC)[C@H](OCCCSCC(=O)NCCNc4c(NCCCCCCCCNC(=O)OC(CNC(=O)OCCO[C@H]5[C@H](O[C@H]6[C@H](O)[C@@H](O)[C@H](OC)O[C@@H]6CO)O[C@H](CO)[C@H](O[C@H]6O[C@H](CO)[C@H](O)[C@H](O)[C@H]6O)[C@@H]5O)CNC(=O)OCCO[C@H]5[C@H](O[C@H]6[C@H](O)[C@@H](O)[C@H](OC)O[C@@H]6CO)O[C@H](CO)[C@H](O[C@H]6O[C@H](CO)[C@H](O)[C@H](O)[C@H]6O)[C@@H]5O)c(=O)c4=O)[C@@H](OCCCSCC(=O)NCCNc4c(NCCCCCCCCNC(=O)OC(CNC(=O)OCCO[C@H]5[C@H](O[C@H]6[C@H](O)[C@@H](O)[C@H](OC)O[C@@H]6CO)O[C@H](CO)[C@H](O[C@H]6O[C@H](CO)[C@H](O)[C@H](O)[C@H]6O)[C@@H]5O)CNC(=O)OCCO[C@H]5[C@H](O[C@H]6[C@H](O)[C@@H](O)[C@H](OC)O[C@@H]6CO)O[C@H](CO)[C@H](O[C@H]6O[C@H](CO)[C@H](O)[C@H](O)[C@H]6O)[C@@H]5O)c(=O)c4=O)[C@@H]3OCCCSCC(=O)NCCNc3c(NCCCCCCCCNC(=O)OC(CNC(=O)OCCO[C@H]4[C@H](O[C@H]5[C@H](O)[C@@H](O)[C@H](OC)O[C@@H]5CO)O[C@H](CO)[C@H](O[C@H]5O[C@H](CO)[C@H](O)[C@H](O)[C@H]5O)[C@@H]4O)CNC(=O)OCCO[C@H]4[C@H](O[C@H]5[C@H](O)[C@@H](O)[C@H](OC)O[C@@H]5CO)O[C@H](CO)[C@H](O[C@H]5O[C@H](CO)[C@H](O)[C@H](O)[C@H]5O)[C@@H]4O)c(=O)c3=O)c(=O)c2=O)[C@H](O)[C@H]1O` [Compound 23], the results for the 50% inhibitory concentration (IC50) on SLT-1 (VT-1), on SLT-1 (Verotoxin I) (read-out: IC50) and against SLT-2 (VT-2) were 0.0033 µM, 0.0016 µM and 0.009 µM, respectively.

The record behind these values is patent publication US6310043A (priority 1999, dated 2001).
